“Also recorded” adds a separate entry of the source.
How the values were obtained:
HEK293 cells = test: Annexin V cell survival assay by flow cytometry; format: cell-based, human
Protocol: HEK293 cells were plated in 10 cm culture dishes in 10% FBS DMEM media. Media was replaced with dFBS DMEM once 40% confluence was reached and cells were incubated for 24 h. Cells were treated with the following concentrations of agents: Gem 20 μM concentration (Gem^20), CQ 10 μM (CQ^10) and 20 μM (CQ^20) concentrations, and in combinations (wherein Gem was administered at 20 μM but CQ concentration varied) as follows: Gem+CQ^10 and Gem+CQ^20. Cells were treated in fresh dFBS DMEM media for 16 h. Cells and media were collected, centrifuged, and washed and stained with propedium iodide (PI) and annexin V prior to running samples. Cell cycle analysis was performed using fresh cells on a FACS Calibur (Becton Dickinson) after incubation with 25 μg/ml PI. Cell cycle phases were analyzed with the CellQuest-Pro software program (Becton Dickinson).
The effect of autophagy inhibitor CQ was examined via a cell survival assay by flow cytometry using annexin V (FIG. 8).
HEK293 cells were plated in 6 well cell culture plates and treated with control (A), Gem 20 μM (B), CQ 10 μM (C), CQ 20 μM (D), Gem 20 μM+CQ 10 μM (E), and Gem 20 μM+CQ 20 μM (F). Cells treated with CQ at both concentrations had increased expression of phosphatidyl serine compared to control from 10% up to almost 17% (C,E). Cells treated with Gem 20 μM alone had only 8.2% apoptotic cells (B).

LC3B [1] = test: Western blot of LC3B in exosomes extracted from MiaPaCa2 cells; format: cell-based, human
Protocol: U251, a human glioblastoma cell line, MiaPaCa2, a human pancreatic carcinoma cell line, and HEK293, a human embryonic kidney cell line. […] Cells were maintained in DMEM culture media supplemented with 10% fetal bovine serum (FBS), antimycotic, and L-glutamine. At 40% confluence, culture dishes were washed twice with PBS and media was replaced with 10% exosome depleted FBS (dFBS). DMEM media (50 ml EXO-FBS™ Exosome Depleted FBS media, System Biosciences) and incubated to settle for 24 h. After 24 h, culture dishes were washed with PBS and new dFBS DMEM media was added and treated with chloroquine diphosphate salt (Sigma Aldrich, UK) and incubated. […] Incubation varied according to plate confluency, CQ concentration, and expected number of exosomes secreted by the cell line. Media was collected and used for exosome extraction directly after incubation period concluded.
Detection of LC3B expression in isolated exosomes was completed using western blotting standard protocols. Briefly, gel electrophoresis was used to separate proteins by size and/or structure. Proteins were then transferred to a membrane (polyvinylidene fluoride or nitrocellulose are suitable for use) and blocked with blocking buffer to prevent non-specific antibody binding. Membranes were incubated with anti-LC3B antibody to target LC3B-I and LC3B-II. LI-COR detection (LI-COR Biotechnology, USA) was employed to visualize target proteins. […] CD9 was used as a loading control and was detected using rabbit monoclonal antibody (Cell Signaling Inc., USA). […]

LC3B [2] = test: Western blot of LC3B in U251 cells and in exosomes extracted from cell media; format: cell-based, human; settings: for LC3B-II band in cells: cells treated with chloroquine, whole cell / total cell extracts (U251); for LC3B-II band in exosomes: exosomes isolated from U251 cells treated with CQ
Excerpt: Three cell lines were used in the studies disclosed herein. U251, a human glioblastoma cell line, MiaPaCa2, a human pancreatic carcinoma cell line, and HEK293, a human embryonic kidney cell line. A variety of cell lines were selected in order to compare results for cells having different baseline autophagic activities. Cells were maintained in DMEM culture media supplemented with 10% fetal bovine serum (FBS), antimycotic, and L-glutamine. At 40% confluence, culture dishes were washed twice with PBS and media was replaced with 10% exosome depleted FBS (dFBS). DMEM media (50 ml EXO-FBS™ Exosome Depleted FBS media, System Biosciences) and incubated to settle for 24 h. After 24 h, culture dishes were washed with PBS and new dFBS DMEM media was added and treated with chloroquine diphosphate salt (Sigma Aldrich, UK) and incubated. Incubation period was 48 h for western blot on HEK293 plates and 72 h for western blot of U251 cells. Incubation varied according to plate confluency, CQ concentration, and expected number of exosomes secreted by the cell line. Media was collected and used for exosome extraction directly after incubation period concluded. Exosome Extraction from Patient Plasma
Exosomes were extracted from freshly collected cell culture media using exosome precipitation reagent (Total Exosome Isolation from cell culture media, Invitrogen by Life Technologies) following manufacturer instructions. Briefly, exosome extraction reagent is added to cell culture media and the solution is incubated overnight at 2-8° C. Precipitated exosomes are recovered by standard centrifugation at 10,000×g for 60 min. Extracted exosomes were suspended in phosphate buffered saline (PBS) and stored at −80° C.
Detection of LC3B expression in isolated exosomes was completed using western blotting standard protocols. Briefly, gel electrophoresis was used to separate proteins by size and/or structure. Proteins were then transferred to a membrane (polyvinylidene fluoride or nitrocellulose are suitable for use) and blocked with blocking buffer to prevent non-specific antibody binding. Membranes were incubated with anti-LC3B antibody to target LC3B-I and LC3B-II. LI-COR detection (LI-COR Biotechnology, USA) was employed to visualize target proteins. LC3B protein detection was achieved by anti-LC3B rabbit monoclonal antibody (Cell Signaling Inc., USA). CD9 was used as a loading control and was detected using rabbit monoclonal antibody (Cell Signaling Inc., USA). All western blots were run on 5-15% gradient gels after estimating and unifying sample protein content by bicinchoninic acid assay (BCA).
Quantification of LC3B-I and LC3B-II by western blot was compared in U251 cells, exosomes extracted from cell media, patient peripheral blood, and HEK293 cells (FIG. 1). U251 and HEK293 cells were treated with CQ to induce exosome secretion. Both cells and exosomes extracted from cellular media were analyzed. A peripheral blood sample was obtained from a patient undergoing Gem/Carb treatment, with a −7 daily pretreatment with CQ. Exosomes were isolated from the patient's plasma sample.

LC3B [3] = test: Western blot of LC3B in exosomes extracted from patient plasma; format: in vivo, human; settings: patients, Gem/Carb regimen + CQ 100 mg/day
Excerpt: The study included 12 patients who were included within cohorts 1-3 of the approved phase I clinical trial (ClinicalTrials.gov Identifier NCT02071537). […] All subjects were consented before treatment and sample collection. All patients were heavily pretreated with anti-cancer therapeutics, with the exception of one patient who was enrolled to receive therapy with carboplatin/gemcitabine as part of the standard-of-care, in addition to the study CQ.
All 12 patients received Gem/Carb for from one to four cycles at standard doses, wherein the first three patients of cohort one received Gem 1200 mg/m2 and the remaining three patients of cohort one received 1200 mg/m^2 (Gem dose decreased in some patients due to heavy pretreatment, in order to avoid high toxicity profile). Carboplatin was received as area under the curve (AUC) 5 and dose modifications were permitted. […] The first 6 patients received 50 mg CQ daily. When well tolerated, the dose was increased by 50 mg increments to 100 mg/day (3 patients) and 150 mg/day (3 patients). All candidates began taking CQ orally 7 days prior to chemotherapy (day −7) and continued taking CQ daily throughout four cycles of Gem/Carb. […]
Detection of LC3B expression in isolated exosomes was completed using western blotting standard protocols. […] CD9 was used as a loading control and was detected using rabbit monoclonal antibody (Cell Signaling Inc., USA). […]

| Structure (SMILES) | early apoptotic cells (HEK293 cells; 20 μM Gem, 16 h) [%] | live cells (HEK293 cells; 20 μM Gem, 16 h) [%] | main cell population (HEK293 cells; Gem 20 μM) | apoptotic cells (HEK293 cells; Gem 20 μM alone, 16 h) [%] | LC3B band intensity in exosomes (LC3B [1]; Gemcitabine 20 μM alone) | apoptotic cells (HEK293 cells; 10 μM CQ, 16 h) [%] | distribution of cell population (HEK293 cells; 20 μM CQ compared with 10 μM CQ) | expression of phosphatidyl serine (apoptotic cells) (HEK293 cells; CQ at both concentrations (10 μM, 20 μM), control 10%) [%] | LC3B-II band in cells (LC3B [2]) | LC3B-II band in cells (LC3B [2]; listed as chloroquine) | LC3B-I bands in exosomes (LC3B [2]; exosomes from cells treated with chloroquine) | LC3B-II band in exosomes (LC3B [2]) | LC3B-II band in exosomes (LC3B [2]; listed as chloroquine) | LC3B-II expression in exosomes (LC3B [1]; CQ 50 μM) | LC3B expression in plasma extracted exosomes (LC3B [3]) |
| --- | --- | --- | --- | --- | --- | --- | --- | --- | --- | --- | --- | --- | --- | --- | --- |
| Nc1ccn([C@@H]2O[C@H](CO)[C@@H](O)C2(F)F)c(=O)n1 [Gem, gemcitabine] | 56.3 | 29.3 | early apoptotic phase | 8.2 | significantly less intense bands for both forms of LC3B; also recorded: comparatively less intense band | – | – | – | – | – | – | – | – | – | – |
| CCN(CC)CCCC(C)Nc1ccnc2cc(Cl)ccc12 (stereo not drawn) [CQ, chloroquine] | – | – | – | – | – | 17 | decreased both live and necrotic cells in favor of early apoptotic and apoptotic cells | ~17 | prominent in both CQ-treated and CQ-untreated samples | increase in LC3B-II band thickness | lacks LC3B-I bands | detected | clear LC3B-II band | clear expression of LC3B-II | first detected at 6h, with peak detection on day 15 |

Reference: patent US20190072567A1, “METHOD OF DETECTING LC3B EXPRESSION IN EXOSOMES EXTRACTED FROM LIQUID BIOLOGICAL SAMPLES” (University of Cincinnati, priority 2017, published 2019)
